For `O=C1C(=O)N(c2ccc(F)cc2)c2ccc(F)cc21`, the melting point was 180 to 190 °C.
In the case of `Cc1ccc(C(C)n2[nH]c(C)cc2=O)cc1` (stereo not drawn), the melting point was 144 to 146 °C.
`O=C(CCCCl)Nc1ccnn1-c1c(Cl)cc(C(F)(F)F)cc1Cl` showed a melting point of 103 to 104 °C.
`COC(=O)Cc1nc2cc(OC)c(OC)cc2c(-c2ccc(OC)c(OC)c2)c1C(=O)OC` gave a melting point of 170 to 171 °C.
`COc1ccc2c(C(=O)O)c(OC)ccc2c1` showed a melting point of 153 to 155 °C.
Compound `Cc1cc(SC2CC(=O)N(c3ccccc3)C2=O)cc(C(C)(C)C)c1N` (stereo not drawn) has a melting point of 126 to 128 °C.
In the case of `O=C(Nc1cc(C2OCCCO2)ccc1O)c1ccccc1OCCCCc1ccccc1`, the melting point was 122 to 123 °C.
`CCOC(=O)N1CCC(Oc2ccccc2)(c2ccccc2)CC1` showed a melting point of 117 to 118 °C.
`CCC(=O)c1ccsc1N` showed a melting point of 140 to 142 °C.
`CSCc1cc(C(F)(F)F)ccc1N` gave a melting point of 65.5 to 67.5 °C.
With `O=C(NCC1CC1)c1[nH]c2ccc(Cl)cc2c1S(=O)(=O)c1ccccc1` the melting point was 232 to 234 °C.
Compound `Cc1c(-c2ccnc3cc(Cl)ccc23)c2cc(NS(C)(=O)=O)ccc2n1CC(=O)O` has a melting point of 195 to 198 °C.
`CC(C)(C)c1c(=O)o[n-][n+]1CCSC12CC3CC(CC(C3)C1)C2` showed a melting point of 55 to 56 °C.
For `Nc1nnc(N2CCN(C(=O)OCc3ccccc3)CC2)[nH]1`, the melting point was 157 to 159 °C.
For `CCOC(=O)c1ncn2c(C(F)(F)F)cc(-c3ccc(C(F)(F)F)cc3)nc12`, the melting point was 243 °C.
`CC1(C)CN(c2ncc(C(=O)O)c(N)n2)C(=O)N1` showed a melting point of 290 to 291 °C.
For `COc1ccc(C2=NN(CCCCCCNC(=O)c3ccccc3C(N)=O)C(=O)[C@H]3CC=CC[C@@H]23)cc1OC` (relative stereo), the melting point was 104 to 105 °C.
Work on `COC(=S)c1cnccc1Cc1ccccc1` yielded a melting point of 98 to 99 °C.
Compound `CNc1ccccc1C(O)c1ccccc1` (stereo not drawn) has a melting point of 124 to 126 °C.
With `CCC(=O)NC(Cl)C(Cl)(Cl)CCl` (stereo not drawn) the melting point was 167 °C.
For `COC(=O)c1cccc2[nH]c3cc4c(c(OC)c3c12)CCCC4`, the melting point was 194 to 196 °C.
`O=c1[nH]nc(-c2ccccc2O)o1` showed a melting point of 198 to 200 °C.
`CC(C)n1c(=O)nc(-c2ccc3c(c2)CCO3)c2cc3c(cc21)OCO3` showed a melting point of 206 to 209 °C.
Compound `COC(=O)CCC(C)C1CCC2C3CC=C4CC(OC(C)=O)CC(OC(C)=O)C4(C)C3CCC12C` (stereo not drawn) has a melting point of 108 to 113 °C.
For `COC(=O)/C=C1\CCc2cc(C(C)(C)C)ccc21`, the melting point was 116 to 118 °C.
Work on `C=Cc1c(F)c(F)cc(C(=O)O)c1F` yielded a melting point of 108 to 110 °C.
For `COc1ccc(C(C)(O)c2ocnc2C)cc1` (stereo not drawn), the melting point was 115 to 116 °C.
With `Fc1ccc2c(c1)Oc1ccccc1S2` the melting point was 77.5 to 79 °C.
For `COc1cc(C(C)C)c2c(c1)S(=O)(=O)N(COc1cc(-c3ccccc3)nn1C)C2=O`, the melting point was 126 to 128 °C.
In the case of `COc1ccc2c(c1)c(CC(=O)O)c(C)n2-c1ncnc2cc(Cl)ccc12`, the melting point was 202 to 204 °C.
For `CCC(=O)C(CCCCCCOc1ccc(S(N)(=O)=O)cc1)C(=O)CC`, the melting point was 86 to 87 °C.
`O=C(c1cccs1)c1cnn2c(Cl)ccnc12` showed a melting point of 148 to 150 °C.
`Cn1nnnc1SCCCCSc1ccccn1` gave a melting point of 49 to 51.5 °C.
`N#CCN1CCN(c2cccc(Cl)c2Cl)CC1` showed a melting point of 89 to 92 °C.
With `CCCn1c(=O)c(C(=O)OCC)c(O)c2ccc(C)nc21` the melting point was 128 to 130 °C.
In the case of `COC(=O)CCCC#CCN1C(=O)c2ccccc2C1=O`, the melting point was 62 to 63 °C.
Work on `O=C1CCCc2cc(F)cc(F)c21` yielded a melting point of 57 to 58 °C.
Work on `Cc1ccc(-c2cc(-c3ccc(O)c(F)c3)nc3ccc(O)cc23)cc1` yielded a melting point of 184 to 188 °C.
`CCCC(=O)Nc1ccc(N2CCC(NC[C@H](O)COc3cccc4[nH]c(=O)[nH]c34)CC2)cc1` showed a melting point of 190 to 201 °C.
Work on `O=C(O)C1=Cc2cc(S(=O)(=O)Cc3ccccc3)ccc2OC1C(F)(F)F` (stereo not drawn) yielded a melting point of 172 to 176 °C.
In the case of `CN(NC(=O)OC(C)(C)C)C(=O)OCc1ccccc1`, the melting point was 60 to 65 °C.
In the case of `COc1ccc2c(c1)N(CC1CN3CCC1CC3)c1ccccc1S2` (stereo not drawn), the melting point was 135 to 136 °C.
Compound `CCOC(=O)CNC(=O)c1ncc(O)cc1O` has a melting point of 96 to 98 °C.
For `CCCn1c(=O)c2[nH]c(C(CC)Cc3ccccc3)nc2n(CCC)c1=O` (stereo not drawn), the melting point was 180 °C.
`CNc1nc(-c2ccc(Cl)c(Cl)c2)cs1` gave a melting point of 220 to 221 °C.
For `CN(C)c1nccc(-c2ccc(-c3ccc(N(c4ccccc4)c4ccccc4)cc3)cc2)n1`, the melting point was 140 to 141 °C.
Work on `CC(C)c1ccc(-c2nnc(-c3cccc(C(=O)O)c3)o2)cc1` yielded a melting point of 202 to 204 °C.
`Oc1ccc(C(F)(F)C(F)(F)C(F)(F)/C=C/C(F)(F)C(F)(F)C(F)(F)c2ccc(O)cc2)cc1` showed a melting point of 134 to 138 °C.
Work on `CCC(=O)Nc1cccc(NC(=O)C2CC2)c1` yielded a melting point of 185 to 186 °C.
In the case of `COc1cccc(C2(CC(=O)N(C)C)C=CCCC2)c1` (stereo not drawn), the melting point was 161 to 162 °C.
With `O=C(CC1CC1)NC[C@H]1CN(c2ccc3c(c2)CCCc2cnoc2-3)C(=O)O1` the melting point was 187 to 191 °C.
In the case of `CCCCCCCCCCCCCCCCCCNC(=O)OCC(CN)COC` (stereo not drawn), the melting point was 84 to 85 °C.
For `CCOC(=O)c1cc(N=c2sc(=S)n3n2CCCC3)c(F)cc1F`, the melting point was 91 to 92 °C.
In the case of `CC(O)=C(C(=O)OC(c1ccccc1)c1ccccc1)N1C(=O)C(NC(=O)COc2ccccc2)C1SS(=O)(=O)c1ccc(C)cc1` (stereo not drawn), the melting point was 150 to 152 °C.
Compound `O=C(O)Cc1c(C(=O)c2cc(CO)ccn2)[nH]c2cc(Cl)ccc12` has a melting point of 210 to 212 °C.
With `CCOC(=O)CNC(=O)C(C)(C(C)C)C(C)C` the melting point was 74.5 to 75.5 °C.
Work on `COc1ccc2c(c1)CCC1C2CCC2(C)C(OC(C)=O)=CCC12` (stereo not drawn) yielded a melting point of 97 to 100 °C.
Work on `O=C1C(=CN2CCOCC2)c2ccccc2N1c1cccc(Cl)c1` yielded a melting point of 130 to 132 °C.
In the case of `CCOC(=O)c1ccc(CN2C(=O)c3ccccc3C2=O)o1`, the melting point was 108 to 109 °C.
Compound `CCCn1cc(Cc2ccc(C(=O)OC)cc2OC)c2cc(C=C(C)C(=O)O)ccc21` has a melting point of 159 to 161 °C.
For `C#CCN(Cc1cc2c(=O)n(C)c(CN3CCC(O)CC3)nc2cc1Cl)c1ccc(C(=O)OC(C)(C)C)cc1`, the melting point was 208 to 210 °C.
`N#Cc1cc(-n2cccc2)cnc1Cl` gave a melting point of 144 to 146 °C.
`COc1cc(CC(=O)Nc2ccc(C(C)CC(=O)O)cc2)ccc1NC(=O)N1CCc2ccccc21` (stereo not drawn) showed a melting point of 152 to 154 °C.
With `O=C(O)Cn1sc2ccccc2c1=O` the melting point was 236 to 238 °C.
Work on `COC1CC(NC(=O)C(F)(F)F)C(C)(O)C(C)O1` (stereo not drawn) yielded a melting point of 133 to 134 °C.
In the case of `CCNc1cccnc1N1CCN(C(=O)c2ccc(C(=O)O)cn2)CC1`, the melting point was 155 to 157 °C.
For `CC(C)(C(=O)O)n1c(=O)[nH]c2cc(F)c(F)cc2c1=O`, the melting point was 242 to 244 °C.
For `CCc1nc2c(cnn2CC)c(NC2CCOCC2)c1CNC(=O)c1cccc(C(=O)NCc2ccc(OC)c(-c3cccc(CN4CC5CC4CN5)c3)c2)c1` (stereo not drawn), the melting point was 129 to 131 °C.
Work on `CC1(c2ccc(C#N)cc2)C(=O)N(Cc2ccc(F)cc2)Cc2cncn21` (stereo not drawn) yielded a melting point of 66 to 70 °C.
With `O=C(O)C(=O)c1cnsc1` the melting point was 145 to 148 °C.
With `CC#CCOc1cc(OCC#CC)ncn1` the melting point was 82.9 °C.
Compound `Cc1oc2c(C)c(C)c(NCc3ccc(F)cc3)c(C)c2c1-c1ccccc1` has a melting point of 135 to 136 °C.
Work on `O=C1C=CC(O)(C(F)(F)F)C=C1` yielded a melting point of 84 to 86 °C.
Compound `COc1cccc(-c2noc(-c3ccccn3)n2)c1` has a melting point of 90 to 94 °C.
For `CC(=O)NC[C@H]1CN(c2ccc(N3CCC(O)(COS(C)(=O)=O)CC3)c(F)c2)C(=O)O1`, the melting point was 136 to 138 °C.
`O=C(Nc1cccc(NCc2ccccc2)n1)c1cc(-c2ccc(F)cc2)n(C2CCCCO2)n1` (stereo not drawn) showed a melting point of 139 to 140 °C.
`CNC(C)C(=O)Nc1cccc2c1C(=O)c1c(NC(=O)C(C)NC)cccc1C2=O` (stereo not drawn) gave a melting point of 233 to 234 °C.
Work on `CCC(C)(C)c1csc(C(C#N)=C(O)c2c(F)cccc2F)n1` yielded a melting point of 195 to 196 °C.
For `O=C1C2=C(NC(=O)C3(N2)OCCO3)c2ccccc21`, the melting point was 296 to 301 °C.
With `Cc1[nH]cnc1CSCCNc1ncc(Cc2ccn(C)c(=O)c2)c(=O)[nH]1` the melting point was 202 to 204 °C.
`CCC(OCc1ccc(-c2ccc(Cl)cc2)cc1)(C(=O)OC)c1ccccc1` (stereo not drawn) gave a melting point of 68 to 72 °C.
For `CCOC(=O)c1cnn(-c2ccc(-n3cc(OC)c(=O)c(-c4ccnn4-c4ccccc4)n3)c(F)c2)c1O`, the melting point was 188 to 193 °C.
With `Nc1ccc(OCc2nc3ccccc3s2)cc1` the melting point was 87 to 89 °C.
For `CCc1ccc2c(c1)C=Cc1cc(O)ccc1C2c1cn(-c2ccnc(NCC(=O)Nc3nc(CC(=O)O)cs3)n2)c(=O)[nH]c1=O` (stereo not drawn), the melting point was 225 °C.
`CN1CCC(C2(O)c3ccccc3Sc3ccc(S(=O)(=O)C(F)(F)F)cc32)CC1` (stereo not drawn) showed a melting point of 211 to 216 °C.
`CC1(C)CCc2ccc(OCCCCN3CCN(c4cccc(Cl)c4Cl)CC3)cc2NC1=O` gave a melting point of 110 to 112 °C.
In the case of `O=C1CCC(c2ccccc2)(c2ccccc2)C2CN(C(Cc3ccccc3)=NCc3ccccc3Cl)CC12` (stereo not drawn), the melting point was 192 °C.
In the case of `Nc1cccc(-c2ccc(OC3CN(Cc4ccccn4)C3)c3ccccc23)n1`, the melting point was 97 to 120 °C.
With `O=S1(=O)N(CCN2CCN(c3ccc(F)cc3)CC2)c2cccc3c2N1CCC3` the melting point was 118 °C.
Compound `c1ccc(-c2cnc(-c3ccccc3)s2)cc1` has a melting point of 102 to 105 °C.
Compound `CN(CC(=C1NCCCS1)[N+](=O)[O-])c1ccccc1` has a melting point of 105 to 106 °C.
Compound `C[C@]1(CN2CCC(Cc3ccc(OC(F)(F)F)cc3)CC2)Cn2cc([N+](=O)[O-])nc2O1` has a melting point of 111 to 112 °C.
Work on `COc1ccc(-c2c(Cl)ncnc2Cl)cc1` yielded a melting point of 95 to 96 °C.
`Cc1ccccc1-c1ccc2c(c1)CCCc1c-2nc2ccc(F)cc2c1C(=O)O` showed a melting point of over 300 °C.
Compound `CN(CC(O)c1cccc(O)c1)C(=O)c1cnc(N(C)C)nc1-c1ccccc1` (stereo not drawn) has a melting point of 79 to 81 °C.
`COC(=O)[C@H](Cc1cc(Cl)c(OCc2cccc3nc(-c4ccccc4)oc23)c(Cl)c1)NC(=O)C(F)(F)F` gave a melting point of 168 to 170 °C.
Compound `CC1(C)OC(C=Cc2ccsc2)=CC1=O` has a melting point of 79 to 80 °C.
`CN1CCc2nc3cc(Cl)ccc3c(NNc3ccccc3)c2C1` showed a melting point of 175 to 178 °C.
In the case of `O=C1Nc2ccc(Cl)cc2Cn2nnnc21`, the melting point was 260 to 264 °C.
In the case of `O=C(Nc1ccc(Oc2ccnc(NCC3CC3)n2)c2ccccc12)c1cc(F)cc(N2CCCCC2)c1`, the melting point was 117 to 119 °C.
In the case of `CCc1nnc2c(Nc3ccccc3)nc3ccccc3n12`, the melting point was 172 to 174 °C.
In the case of `CCOCn1cnc2c(N)nc3ccccc3c21`, the melting point was 255 to 261 °C.
`CC(=O)N1CCN(c2nc(Cl)ccc2[N+](=O)[O-])CC1` showed a melting point of 137 to 138 °C.
